Here are results for one compound from PubChem BioAssay (NCI).

Structures are written as SMILES.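 Briefly, cells in 96-well plates were exposed to five compound concentrations for 48 h, and endpoints were estimated by linear interpolation. TGI is the concentration that stops growth completely.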

Among the test systems are CCRF-CEM leukemia; HL-60(TB) leukemia; MALME-3M melanoma; OVCAR-5 ovarian; OVCAR-8 ovarian; RPMI-8226 leukemia; SF-295 CNS; SK-MEL-2 melanoma; SK-MEL-28 melanoma; SK-MEL-5 melanoma; SK-OV-3 ovarian.
What all share (assay): growth of human tumour cells (NCI), 48 h

As to `Cc1ccc(C[P+]2(c3ccccc3)CCCCC2)cc1`, the TGI with CCRF-CEM leukemia is greater than 100 µM; in the assay with HL-60(TB) leukemia it was 33.6 µM; with MALME-3M melanoma, greater than 100 µM; in the assay on OVCAR-5 ovarian, greater than 100 µM; with OVCAR-8 ovarian, greater than 100 µM; with RPMI-8226 leukemia, 46.8 µM. The TGI in the assay on SF-295 CNS is greater than 100 µM; in the assay with SK-MEL-2 melanoma it was 80.6 µM; with SK-MEL-28 melanoma it was greater than 100 µM; in the assay with SK-MEL-5 melanoma it was 24.4 µM; in the assay with SK-OV-3 ovarian it was greater than 100 µM.
